Assay results published in US11325907B2, “Crystal form of 1H-imidazo[4,5-b]pyridine-2(3H)-one compound and preparation process therefor” (MEDSHINE DISCOVERY INC., priority 2018, dated 2022).

Key:
Format in all cases: physicochemical
[1] = Stability tests of Crystal Form A in different solvents; conditions: for Status (after 2 days): 50 mg, stirred at 40° C. for 2 days
Description: The solids in all samples were collected and dried in vacuum drying oven (40° C.) overnight. The crystal forms were tested for XRPD.

[2] = Hygroscopicity test (Dynamic Vapor Sorption); conditions: 25° C. and 80% RH, DVS
Description: Device: SEM Advantage-1 Dynamic Vapor Sorption apparatus
Testing conditions: The sample (10-20 mg) is placed in DVS sample disk for testing.
Balance: dm/dt=0.01%/min (min: 10 min, max: 180 min)
Drying: drying at 0% RH for 120 min
RH (%) testing gradient: 10%
RH (%) testing gradient range: 0% -90%-0%
The hygroscopicity is categorized as follows:
SEM DVS Advantage-1 Dynamic Vapor Sorption instrument

[3] = Solid stability test at high temperature, high humidity and strong light
Description: (§1) Content Determination Method
(§2) Device: Agilent 1260 High Performance Liquid Chromatograph with DAD detector or Shimadzu LC-20A High Performance Liquid Chromatograph with PDA detector
(§3) Detailed Chromatographic parameters are as follows:
(§4) Chromatographic column: Agilent Eclipse plus C18 (4.6 mm×150 mm, 3.5 μm)
(§5) Column temperature: 40° C.
(§6) Detecting wavelength: 230 nm
(§7) Mobile Phase A: 0.04% trifluoroacetic acid aqueous solution (V/V)
(§8) Mobile Phase B: acetonitrile
(§9) Diluent: acetonitrile: purified water=3:1 (v/v)
(§10) Probe Wash: acetonitrile: purified water=3:1 (v/v)
(§11) Gradient elution procedure: […]
The samples placed under high temperature and high humidity conditions were placed in a desiccator for inspection, and the samples were taken on the 5th, 10th and 30th days for testing, and the test results were compared with the initial test results of day 0. The samples placed under strong light were covered with a transparent lid with a sealing film, and the samples were taken on the 5th and 10th days for testing, and the test results were compared with the initial test results on day 0.

[4] = Solid stability test under accelerated conditions (40° C./Relative Humidity 75%, sealed)
Description: as §1, §2, §3, §4, §5, §6, §7, §8, §9, §10, §11
Each layer of the low-density polyethylene bag was buckled and sealed respectively and then the bag was placed in an aluminum foil bag and heat-sealed. The samples were taken on the 1st, 2nd, 3rd and 6th months for testing, and the test results were compared with the initial test results of day 0.

[5] = as above; conditions: 6th month
[6] = High humidity (Room Temperature/Relative Humidity 92.5%, Open), Day 5
[7] = High humidity (Room Temperature/Relative Humidity 92.5%, Open), Day 10
[8] = High humidity (Room Temperature/Relative Humidity 92.5%, Open), Day 30
[9] = High temperature (60° C., Open), Day 5
[10] = High temperature (60° C., Open), Day 10
[11] = High temperature (60° C., Open), Day 30
[12] = Strong light (4500 ± 500 lux, 90 μw/cm^2, Sealed), Day 5
[13] = Strong light (4500 ± 500 lux, 90 μw/cm^2, Sealed), Day 10
[14] = Batch 1, 40° C./Relative Humidity 75%, Sealed, 1st month
[15] = Batch 1, 40° C./Relative Humidity 75%, Sealed, 2nd month
[16] = Batch 1, 40° C./Relative Humidity 75%, Sealed, 3rd month
[17] = Batch 1, 40° C./Relative Humidity 75%, Sealed, 6th month
[18] = Batch 2, 40° C./Relative Humidity 75%, Sealed, 1st month
[19] = Batch 2, 40° C./Relative Humidity 75%, Sealed, 2nd month
[20] = Batch 2, 40° C./Relative Humidity 75%, Sealed, 3rd month
[21] = Batch 2, 40° C./Relative Humidity 75%, Sealed, 6th month
[22] = Batch 3, 40° C./Relative Humidity 75%, Sealed, 1st month
[23] = Batch 3, 40° C./Relative Humidity 75%, Sealed, 2nd month
[24] = Batch 3, 40° C./Relative Humidity 75%, Sealed, 3rd month
[25] = Batch 3, 40° C./Relative Humidity 75%, Sealed, 6th month
[26] = Batch 1, 40° C./Relative Humidity 75%
[27] = Batch 3, 40° C./Relative Humidity 75%

CCOc1cc([C@@H](CS(C)(=O)=O)n2c(=O)[nH]c3c(C)c(-c4ccccc4F)cnc32)ccc1OC [Crystal Form A of Compound 1]
Status (after 2 days) ([1]; Acetone 0.4 mL): Suspension
Status (after 2 days) ([1]; Acetone:Water (1:2) 0.4 mL): Suspension
Status (after 2 days) ([1]; Acetonitrile 0.4 mL): Suspension
Status (after 2 days) ([1]; Acetonitrile:Water (1:1) 0.4 mL): Suspension
Status (after 2 days) ([1]; Ethanol 0.4 mL): Suspension
Status (after 2 days) ([1]; Ethanol:Water (3:1) 0.4 mL): Suspension
Status (after 2 days) ([1]; Ethyl Acetate 0.4 mL): Suspension
Status (after 2 days) ([1]; Methanol 0.4 mL): Suspension
Status (after 2 days) ([1]; Methanol:Water (3:1) 0.4 mL): Suspension
Status (after 2 days) ([1]; Tetrahydrofuran 0.3 mL): Suspension
Stability in solvents (conclusion) ([1]; alcohol solvent, acetonitrile, acetone, ethyl acetate, tetrahydrofuran and mixed solvents with water): good stability
Hygroscopic Category [2]: no or little hygroscopicity
ΔW (hygroscopic weight gain) [2]: 0.08%
Appearance ([3]; Day 0 (initial)): White
Content ([3]; Day 0 (initial)): 99.5%
Total Impurity ([3]; Day 0 (initial)): 0.11%
Appearance [3, 6]: White
Content [3, 6]: 99.0%
Total Impurity [3, 6]: 0.16%
Appearance [3, 7]: White
Content [3, 7]: 98.9%
Total Impurity [3, 7]: 0.16%
Appearance [3, 8]: White
Content [3, 8]: 99.0%
Total Impurity [3, 8]: 0.16%
Appearance [3, 9]: White
Content [3, 9]: 99.2%
Total Impurity [3, 9]: 0.16%
Appearance [3, 10]: White
Content [3, 10]: 98.8%
Total Impurity [3, 10]: 0.16%
Appearance [3, 11]: White
Content [3, 11]: 99.0%
Total Impurity [3, 11]: 0.16%
Appearance [3, 12]: White
Content [3, 12]: 98.8%
Total Impurity [3, 12]: 0.11%
Appearance [3, 13]: White
Content [3, 13]: 98.6%
Total Impurity [3, 13]: 0.11%
Solid stability (conclusion) ([3]; high temperature, high humidity or strong light conditions): good stability
Appearance [4, 14]: White powder
Content [4, 14]: 99.3%
Total Impurity [4, 14]: 0.09%
Appearance [4, 15]: White powder
Content [4, 15]: 99.1%
Total Impurity [4, 15]: 0.09%
Appearance [4, 16]: White powder
Content [4, 16]: 99.5%
Total Impurity [4, 16]: 0.09%
Content [4, 17]: 100.1%
Total Impurity [4, 17]: 0.10%
Appearance ([4]; Batch 1, Day 0): White powder
Content ([4]; Batch 1, Day 0): 99.4%
Crystal Form (XRPD) ([4]; Batch 1, Day 0): Crystal Form A
Total Impurity ([4]; Batch 1, Day 0): 0.09%
Appearance [4, 18]: White powder
Content [4, 18]: 99.1%
Total Impurity [4, 18]: 0.11%
Appearance [4, 19]: White powder
Content [4, 19]: 99.0%
Total Impurity [4, 19]: 0.11%
Appearance [4, 20]: White powder
Content [4, 20]: 99.2%
Total Impurity [4, 20]: 0.10%
Appearance [4, 21]: White powder
Content [4, 21]: 100.5%
Crystal Form (XRPD) [4, 21]: Crystal Form A
Total Impurity [4, 21]: 0.12%
Appearance ([4]; Batch 2, Day 0): White powder
Content ([4]; Batch 2, Day 0): 99.4%
Crystal Form (XRPD) ([4]; Batch 2, Day 0): Crystal Form A
Total Impurity ([4]; Batch 2, Day 0): 0.10%
Appearance [4, 22]: White powder
Content [4, 22]: 98.8%
Total Impurity [4, 22]: 0.16%
Appearance [4, 23]: White powder
Content [4, 23]: 98.9%
Total Impurity [4, 23]: 0.16%
Appearance [4, 24]: White powder
Content [4, 24]: 99.2%
Total Impurity [4, 24]: 0.16%
Content [4, 25]: 100.0%
Total Impurity [4, 25]: 0.11%
Appearance ([4]; Batch 3, Day 0): White powder
Content ([4]; Batch 3, Day 0): 99.5%
Crystal Form (XRPD) ([4]; Batch 3, Day 0): Crystal Form A
Total Impurity ([4]; Batch 3, Day 0): 0.11%
Solid stability (conclusion) ([4]; accelerated conditions of 40° C./Relative Humidity 75%): good stability
Appearance [5, 26]: White powder
Crystal Form (XRPD) [5, 26]: Crystal Form A
Appearance [5, 27]: White powder
Crystal Form (XRPD) [5, 27]: Crystal Form A
